# Test results reported in ChEMBL document CHEMBL3112450, “Synthesis and in vitro antitumor evaluation of primary amine substituted quinazoline linked benzimidazole” (Bioorg Med Chem Lett, 2014).
# What was measured:
# Assay type in all cases: functional
# HCT-116 = test: Cytotoxicity against human HCT116 cells assessed as cell growth at 10^-6 M after 48 hrs by SRB assay; conditions: HCT-116, 48 h, read-out: Activity
# NCI-H322M = test: Cytotoxicity against human NCI-H322M cells assessed as cell growth at 10^-4 M after 48 hrs by SRB assay; conditions: read-out: Activity
# SF-268 [1] = test: Cytotoxicity against human SF268 cells after 48 hrs by SRB assay; conditions: SF-268, 48 h
# HCT-15 = test: Cytotoxicity against human HCT15 cells assessed as cell growth at 10^-7 M after 48 hrs by SRB assay; conditions: HCT-15, 48 h, read-out: Activity
# [2] = Cytotoxicity against human OVCAR5 cells after 48 hrs by SRB assay; conditions: OVCAR-5, 48 h
# CAKI-1 [3] = test: Cytotoxicity against human Caki1 cells assessed as cell growth at 10^-8 M after 48 hrs by SRB assay; conditions: CAKI-1, 48 h, read-out: Activity
# MOLT-4 [4] = test: Cytotoxicity against human MOLT4 cells assessed as cell growth at 10^-4 M after 48 hrs by SRB assay; conditions: MOLT-4, 48 h, read-out: Activity
# SF-268 [5] = test: Cytotoxicity against human SF268 cells assessed as cell growth at 10^-7 M after 48 hrs by SRB assay; conditions: SF-268, 48 h, read-out: Activity
# [6] = Cytotoxicity against human Hs578T cells assessed as cell growth at 10^-4 M after 48 hrs by SRB assay; conditions: Hs-578T, read-out: Activity
# [7] = Cytotoxicity against human NCI-ADR-RES cells assessed as cell growth at 10^-7 M after 48 hrs by SRB assay; conditions: read-out: Activity
# SK-MEL-5 [8] = test: Cytotoxicity against human SK-MEL-5 cells assessed as cell growth at 10^-7 M after 48 hrs by SRB assay; conditions: SK-MEL-5, 48 h, read-out: Activity
# [9] = Cytotoxicity against human OVCAR5 cells assessed as cell growth at 10^-4 M after 48 hrs by SRB assay; conditions: OVCAR-5, 48 h, read-out: Activity
# SNB-19 = test: Cytotoxicity against human SNB19 cells assessed as cell growth at 10^-6 M after 48 hrs by SRB assay; conditions: SNB-19, 48 h, read-out: Activity
# HOP-62 = test: Cytotoxicity against human HOP62 cells assessed as cell growth at 10^-8 M after 48 hrs by SRB assay; conditions: HOP-62, 48 h, read-out: Activity
# T47D = test: Cytotoxicity against human T47D cells assessed as cell growth at 10^-6 M after 48 hrs by SRB assay; conditions: read-out: Activity
# SK-MEL-2 = test: Cytotoxicity against human SK-MEL-2 cells assessed as cell growth at 10^-7 M after 48 hrs by SRB assay; conditions: SK-MEL-2, 48 h, read-out: Activity
# MOLT-4 [10] = test: Cytotoxicity against human MOLT4 cells assessed as cell growth at 10^-7 M after 48 hrs by SRB assay; conditions: MOLT-4, 48 h, read-out: Activity
# NCI-H522 [11] = test: Cytotoxicity against human NCI-H522 cells assessed as cell growth at 10^-6 M after 48 hrs by SRB assay; conditions: NCI-H522, 48 h, read-out: Activity
# SK-MEL-5 [12] = test: Cytotoxicity against human SK-MEL-5 cells after 48 hrs by SRB assay; conditions: SK-MEL-5, 48 h
# KM12 = test: Cytotoxicity against human KM12 cells assessed as cell growth at 10^-8 M after 48 hrs by SRB assay; conditions: KM12, 48 h, read-out: Activity
# [13] = Cytotoxicity against human Hs578T cells assessed as cell growth at 10^-6 M after 48 hrs by SRB assay; conditions: Hs-578T, read-out: Activity
# RXF 393 [14] = test: Cytotoxicity against human RXF393 cells assessed as cell growth at 10^-8 M after 48 hrs by SRB assay; conditions: RXF 393, 48 h, read-out: Activity
# HCC 2998 = test: Cytotoxicity against human HCC2998 cells assessed as cell growth at 10^-8 M after 48 hrs by SRB assay; conditions: HCC 2998, 48 h, read-out: Activity
# SF-539 = test: Cytotoxicity against human SF539 cells assessed as cell growth at 10^-8 M after 48 hrs by SRB assay; conditions: SF-539, 48 h, read-out: Activity
# SR = test: Cytotoxicity against human SR cells assessed as cell growth at 10^-8 M after 48 hrs by SRB assay; conditions: read-out: Activity
# MDA-MB-231 = test: Cytotoxicity against human MDA-MB-231 cells after 48 hrs by SRB assay; conditions: MDA-MB-231, 48 h
# PC-3 = test: Cytotoxicity against human PC3 cells assessed as cell growth at 10^-8 M after 48 hrs by SRB assay; conditions: PC-3, 48 h, read-out: Activity
# NCI-H522 [15] = test: Cytotoxicity against human NCI-H522 cells assessed as cell growth at 10^-8 M after 48 hrs by SRB assay; conditions: NCI-H522, 48 h, read-out: Activity
# LOX IMVI = test: Cytotoxicity against human LOXIMVI cells assessed as cell growth at 10^-7 M after 48 hrs by SRB assay; conditions: read-out: Activity
# RXF 393 [16] = test: Cytotoxicity against human RXF393 cells assessed as cell growth at 10^-6 M after 48 hrs by SRB assay; conditions: RXF 393, 48 h, read-out: Activity
# NCI-H460 = test: Cytotoxicity against human NCI-H460 cells assessed as cell growth at 10^-7 M after 48 hrs by SRB assay; conditions: NCI-H460, 48 h, read-out: Activity
# CAKI-1 [17] = test: Cytotoxicity against human Caki1 cells after 48 hrs by SRB assay; conditions: CAKI-1, 48 h
# [18] = Cytotoxicity against human OVCAR5 cells assessed as cell growth at 10^-7 M after 48 hrs by SRB assay; conditions: OVCAR-5, 48 h, read-out: Activity
# UACC-62 = test: Cytotoxicity against human UACC62 cells after 48 hrs by SRB assay; conditions: UACC-62, 48 h
# OVCAR-3 = test: Cytotoxicity against human OVCAR3 cells after 48 hrs by SRB assay; conditions: OVCAR-3, 48 h
# HOP-92 = test: Cytotoxicity against human HOP92 cells after 48 hrs by SRB assay; conditions: HOP-92, 48 h
# SK-MEL-28 = test: Cytotoxicity against human SK-MEL-28 cells assessed as cell growth at 10^-8 M after 48 hrs by SRB assay; conditions: SK-MEL-28, 48 h, read-out: Activity
# BT-549 = test: Cytotoxicity against human BT549 cells after 48 hrs by SRB assay; conditions: BT-549, 48 h
smiles,measurement,setting,value
C=CCn1c(C)nc2ccc(Nc3nc(Nc4ccc5nc(C)n(CC=C)c5c4)c4ccccc4n3)cc21,growth at 1 µM,HCT-116,74%
same,growth at 100 µM,NCI-H322M,-58%
same,GI50,SF-268 [1],1.54 µM
same,TGI,SF-268 [1],3.22 µM
same,growth at 0.1 µM,HCT-15,91%
same,GI50,[2],1.7 µM
same,LC50,[2],5.62 µM
same,TGI,[2],3.09 µM
same,growth at 0.01 µM,CAKI-1 [3],93%
same,growth at 100 µM,MOLT-4 [4],2%
same,growth at 0.1 µM,SF-268 [5],86%
same,growth at 100 µM,[6],-15%
same,growth at 0.1 µM,[7],95%
same,growth at 0.1 µM,SK-MEL-5 [8],94%
same,growth at 100 µM,[9],-75%
same,growth at 1 µM,SNB-19,85%
same,growth at 0.01 µM,HOP-62,99%
same,growth at 1 µM,T47D,80%
same,growth at 0.1 µM,SK-MEL-2,99%
same,growth at 0.1 µM,MOLT-4 [10],94%
same,growth at 1 µM,NCI-H522 [11],114%
same,GI50,SK-MEL-5 [12],1.65 µM
same,TGI,SK-MEL-5 [12],3.03 µM
same,growth at 0.01 µM,KM12,96%
same,growth at 1 µM,[13],81%
same,growth at 0.01 µM,RXF 393 [14],95%
same,growth at 0.01 µM,HCC 2998,92%
same,growth at 0.01 µM,SF-539,96%
same,growth at 0.01 µM,SR,97%
same,GI50,MDA-MB-231,1.34 µM
same,LC50,MDA-MB-231,5.12 µM
same,TGI,MDA-MB-231,2.62 µM
same,growth at 0.01 µM,PC-3,93%
same,growth at 0.01 µM,NCI-H522 [15],97%
same,growth at 0.1 µM,LOX IMVI,91%
same,growth at 1 µM,RXF 393 [16],99%
same,growth at 0.1 µM,NCI-H460,101%
same,GI50,CAKI-1 [17],1.72 µM
same,TGI,CAKI-1 [17],3.36 µM
same,growth at 0.1 µM,[18],91%
same,GI50,UACC-62,1.55 µM
same,TGI,UACC-62,2.89 µM
same,CC50,UACC-62; read-out: LC50 (the source's name),5.38 µM
same,GI50,OVCAR-3,1.7 µM
same,TGI,OVCAR-3,3.08 µM
same,GI50,HOP-92,1.37 µM
same,TGI,HOP-92,2.93 µM
same,growth at 0.01 µM,SK-MEL-28,98%
same,GI50,BT-549,1.62 µM
same,TGI,BT-549,3.16 µM
